Laboratory results reported in US20240158393A1, “PYRIDONE COMPOUNDS AND METHODS OF USE” (Exelixis, Inc., priority 2021, published 2024).

Target: T1, Human Axl (Homo sapiens, UniProt P30530)
T1 construct: Human AXL (residues 464-885)
T1 sequence (P30530 1-894 Q764R): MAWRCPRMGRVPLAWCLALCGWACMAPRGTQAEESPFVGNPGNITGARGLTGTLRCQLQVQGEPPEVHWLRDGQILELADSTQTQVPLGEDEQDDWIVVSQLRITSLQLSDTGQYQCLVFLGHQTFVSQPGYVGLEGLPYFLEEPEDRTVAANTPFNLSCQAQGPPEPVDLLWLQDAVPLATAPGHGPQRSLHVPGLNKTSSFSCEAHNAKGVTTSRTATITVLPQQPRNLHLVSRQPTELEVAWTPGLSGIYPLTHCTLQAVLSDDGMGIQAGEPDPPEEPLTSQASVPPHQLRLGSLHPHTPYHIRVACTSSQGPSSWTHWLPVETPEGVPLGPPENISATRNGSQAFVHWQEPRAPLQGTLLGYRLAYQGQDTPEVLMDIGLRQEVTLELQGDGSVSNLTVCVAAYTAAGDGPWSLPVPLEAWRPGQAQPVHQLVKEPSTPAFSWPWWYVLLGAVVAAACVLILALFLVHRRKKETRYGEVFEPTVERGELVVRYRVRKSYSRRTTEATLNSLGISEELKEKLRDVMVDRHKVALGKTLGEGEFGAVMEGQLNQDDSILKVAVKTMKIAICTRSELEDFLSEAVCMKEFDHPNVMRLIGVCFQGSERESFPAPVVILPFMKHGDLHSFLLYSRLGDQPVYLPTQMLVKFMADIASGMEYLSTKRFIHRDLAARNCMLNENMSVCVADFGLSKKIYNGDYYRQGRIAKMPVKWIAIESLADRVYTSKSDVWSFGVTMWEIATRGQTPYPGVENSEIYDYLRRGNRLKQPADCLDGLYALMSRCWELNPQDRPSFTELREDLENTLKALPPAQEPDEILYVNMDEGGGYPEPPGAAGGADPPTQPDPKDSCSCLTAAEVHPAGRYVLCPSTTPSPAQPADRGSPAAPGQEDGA
Test: Human AXL kinase assay (33P radiometric / HTRF KinEase)
Assay type: biochemical
Settings: protocols of Examples A-1 and/or A-2

SMILES	IC50 [nM]
COc1cc2nccc(Oc3ccc(NC(=O)c4c(C)n(C)c(C)c(C(=O)O)c4=O)cc3F)c2nc1OC [Compound 92, 5-[[4-[(6,7-Dimethoxy-1,5-naphthyridin-4-yl)oxy]-3-fluorophenyl]carbamoyl]-1,2,6-trimethyl-4-oxopyridine-3-carboxylic acid]	> 300
COc1cc2nccc(Oc3ccc(NC(=O)c4cn(CCF)c(C)c(C5=CCCC5)c4=O)cc3F)c2nc1OC [Compound 11, 5-(Cyclopenten-1-yl)-N-[4-[(6,7-dimethoxy-1,5-naphthyridin-4-yl)oxy]-3-fluorophenyl]-1-(2-fluoroethyl)-6-methyl-4-oxopyridine-3-carboxamide]	≤ 100
